Measured values reported in ChEMBL document CHEMBL5120880, “Peptidomimetics: An Overview of Recent Medicinal Chemistry Efforts toward the Discovery of Novel Small Molecule Inhibitors” (J Med Chem, 2022).
≈ marks a conversion by molar mass, not a printed value. Square brackets hold non-standard residues; d marks the D form. Peptide text beside a SMILES is read from it. * marks the point of attachment. Pro(cis-4-OPh) = O=C(O)[C@@H]1C[C@H](Oc2ccccc2)CN1; Bip = N[C@@H](Cc1ccc(-c2ccccc2)cc1)C(=O)O; X1 = CCCCCCCCCCCCCCCCCCS(=O)(=O)CCN*; Tle = CC(C)(C)[C@H](N)C(=O)O; X2 = CCCCCCCCCCCCCCCCCCSCCN*; NMeA = CN[C@@H](C)C(=O)O

Legend:
[1] = molecular target: T1, Enoyl-[acyl-carrier-protein] reductase [NADH] FabI (Escherichia coli K-12, UniProt P0AEK4); test: Inhibition of Escherichia coli […] assessed as measuring NADH consumption rate
T1 sequence (P0AEK4 whole entry): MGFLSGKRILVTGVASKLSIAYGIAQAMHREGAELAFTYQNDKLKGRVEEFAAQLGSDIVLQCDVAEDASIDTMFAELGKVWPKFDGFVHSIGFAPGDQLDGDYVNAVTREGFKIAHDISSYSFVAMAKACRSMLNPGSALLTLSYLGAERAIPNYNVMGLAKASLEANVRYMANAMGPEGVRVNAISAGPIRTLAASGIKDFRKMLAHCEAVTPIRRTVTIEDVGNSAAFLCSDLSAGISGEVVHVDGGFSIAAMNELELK

[2] = system: Klebsiella pneumoniae subsp. ozaenae; test: Antibacterial activity against Klebsiella pneumoniae A6030827 assessed as minimal inhibitory concentration; type: functional
[3] = Inhibition of Acinetobacter baumannii […] assessed as measuring NADH consumption rate
Acinetobacter baumannii = test: Antibacterial activity against Acinetobacter baumannii ATCC BAA1605 assessed as minimal inhibitory concentration; type: functional
Staphylococcus aureus = test: Antibacterial activity against Staphylococcus aureus ATCC 29213 assessed as minimal inhibitory concentration; type: functional
Escherichia coli = test: Antibacterial activity against Escherichia coli AG100 assessed as minimal inhibitory concentration; type: functional
SARS-CoV-2 [4] = test: Antiviral activity against SARS-CoV-2 by cell based assay; type: functional, organism-based; details: Severe acute respiratory syndrome coronavirus 2
SARS-CoV-2 [5] = test: microbe, parasite or virus in culture; details: Severe acute respiratory syndrome coronavirus 2
Murine hepatitis virus = test: microbe, parasite or virus in culture; details: Murine coronavirus
[6] = system: Feline infectious peritonitis virus; test: microbe, parasite or virus in culture; details: Alphacoronavirus 1
[7] = system: Middle East respiratory syndrome-related coronavirus; test: Antiviral activity against MERS-CoV by cell based assay; type: functional, organism-based
Hepatitis C virus [8] = test: Antiviral activity against HCV genotype 1b/3a NS5A infected in human Huh-7 cells by phenotypic assay; type: functional, organism-based, Hepacivirus hominis
Hepatitis C virus [9] = test: Antiviral activity against HCV genotype 1b/6a NS5A infected in human Huh-7 cells by phenotypic assay; type: functional, organism-based, Hepacivirus hominis
[10] = Inhibition of FITC-labeled NS4A binding to HCV NS3 (4 to 182 residues) expressed in Escherichia coli […] (DE3) incubated for 60 mins by fluorescence anisotropy based competition assay; design: species or system Hepacivirus hominis
[11] = Antitumor activity against human UM-SCC-38 cells assessed as cell growth inhibition; type: functional, cell-based
[12] = Antitumor activity against human UM-SCC-5 cells assessed as cell growth inhibition; type: functional, cell-based

For `Cc1c(CN(C)C(=O)/C=C/c2cnc3c(c2)CC[C@@H](N)C(=O)N3)oc2ccccc12.Cl`, the IC50 [1] was under 10 nM, the MIC [2] was at most 4 µg/mL and the IC50 [3] was under 10 nM. The MIC (Acinetobacter baumannii) was at most 4 µg/mL, the MIC (Staphylococcus aureus) was at most 4 µg/mL and the MIC (Escherichia coli) was at most 4 µg/mL.
In the case of `Cc1c(CN(C)C(=O)/C=C/c2cnc3c(c2)NC[C@@H](N)C(=O)N3)oc2ccccc12.Cl`, the IC50 [1] is reported as under 10 nM, the MIC [2] is reported as under 4 µg/mL and the IC50 [3] is reported as under 10 nM. The MIC (Acinetobacter baumannii) was under 4 µg/mL, the MIC (Staphylococcus aureus) was under 4 µg/mL and the MIC (Escherichia coli) was under 4 µg/mL.
`CCCC1CCC(OC(=O)N[C@@H](CC(C)C)C(=O)N[C@H](C=O)C[C@H]2CCNC2=O)CC1` (stereo not given in full) gave an EC50 (SARS-CoV-2 [4]) of 100 nM, an IC50 (SARS-CoV-2 [5]) of 1600 nM and an EC50 (Murine hepatitis virus) of 130 nM. For the same molecule, the EC50 [6] was 120 nM and the EC50 [7] was 50 nM.
`Cc1oc2c(N)cccc2c1CN(C)C(=O)/C=C/c1cnc2c(c1)CCC(N1CCCC1)C(=O)N2` (stereo not given) gave an IC50 [1] of under 10 nM, an MIC (Acinetobacter baumannii) of at most 4 µg/mL and an MIC (Staphylococcus aureus) of at most 4 µg/mL. For the same molecule, the MIC (Escherichia coli) was 8 µg/mL (≈ 16.9 µM).
`COC(=O)N[C@H](C(=O)N1CCC[C@@H]1c1ncc(-c2cccc(-c3c4c(c(-c5cccc(-c6cnc([C@@H]7CCCN7C(=O)[C@H](NC(=O)OC)c7ccccc7)[nH]6)c5)c5c3C(C)(C)CC5)C(C)(C)CC4)c2)[nH]1)c1ccccc1` showed an EC50 (Hepatitis C virus [8]) of 0.053 nM.
`Cc1c(CN(C)C(=O)/C=C/c2cnc3c(c2)CC[C@@H](N2CCCC2)C(=O)N3)oc2ccccc12` gave an IC50 [1] of under 10 nM, an MIC [2] of at most 4 µg/mL and an IC50 [3] of under 10 nM. The MIC (Acinetobacter baumannii) was at most 4 µg/mL, the MIC (Staphylococcus aureus) was at most 4 µg/mL and the MIC (Escherichia coli) was at most 4 µg/mL.
With `COC(=O)N[C@@H](C(=O)N1CCC[C@H]1C(=O)Nc1cncc(-c2c3c(c(-c4cncc(NC(=O)[C@@H]5CCCN5C(=O)[C@H](NC(=O)OC)c5ccccc5)c4)c4c2C(C)(C)CC4)C(C)(C)CC3)c1)c1ccccc1` the EC50 (Hepatitis C virus [9]) was over 0.5 nM.
Work on `Cc1c(CN(C)C(=O)/C=C/c2cnc3c(c2)NC[C@@H](N2C[C@@H](C)O[C@@H](C)C2)C(=O)N3)oc2ccccc12` yielded an IC50 [1] of under 10 nM, an MIC [2] of 16 µg/mL (≈ 31.8 µM) and an MIC (Acinetobacter baumannii) of at most 4 µg/mL. It also gave an MIC (Staphylococcus aureus) of at most 4 µg/mL.
Work on `CCCCCCNC(=O)c1ncc(C(=O)NCCCCNC(=N)N)[nH]1` yielded an IC50 [10] of 4700 nM.
`CCCCCNC(=O)c1ncc(C(=O)NCCCCNC(=N)N)[nH]1` gave an IC50 [10] of 1910 nM.
In the case of `CNC(=O)CNC(=O)c1ncc(C(=O)NCCCCNC(=N)N)[nH]1`, the IC50 [10] is reported as 1910 nM.
With `CCCCCCCCCCCCCCCCCCS(=O)(=O)CCNC(=O)[C@H](Cc1ccc(-c2ccccc2)cc1)NC(=O)[C@@H]1C[C@H](Oc2ccccc2)CN1C(=O)[C@@H](NC(=O)[C@H](C)NC)C(C)(C)C` (H-[NMeA][Tle][Pro(cis-4-OPh)][Bip]-X1) the EC50 [11] was 140 nM and the EC50 [12] was 730 nM.
`CCCCCCCCCCCCCCCCCCSCCNC(=O)[C@H](Cc1ccc(-c2ccccc2)cc1)NC(=O)[C@@H]1C[C@H](Oc2ccccc2)CN1C(=O)[C@@H](NC(=O)[C@H](C)NC)C(C)(C)C` (H-[NMeA][Tle][Pro(cis-4-OPh)][Bip]-X2) gave an EC50 [11] of 330 nM and an EC50 [12] of 960 nM.
